# From ChEMBL document CHEMBL1201861, “Genomics of Drug Sensitity in Cancer screening data, Wellcome Trust Sanger Institute”
# “And” between values parts separate entries of the source, which are not always exact repeats. Equal values may be shown once.
# Key:
# Test in all cases: cells
# CP50-MEL-B = assay type: functional, cell-based, Homo sapiens;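 note: growth inhibition of the human cell line, measured with a cell viability read-out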
# Description: SANGER: Inhibition of human CP50-MEL-B cell growth in a cell viability assay.
# DEL = assay type: functional, cell-based; conditions: Homo sapiens;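 note: growth inhibition of the human DEL cell line, read out with a cell viability assay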
# Description: SANGER: Inhibition of human DEL cell growth in a cell viability assay.
# DOHH-2 = assay type: functional, cell-based; conditions: Homo sapiens;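 note: growth inhibition of human DOHH-2 cells, read out with a cell viability assay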
# Description: SANGER: Inhibition of human DOHH-2 cell growth in a cell viability assay.
# DOK = assay type: functional, cell-based, Homo sapiens;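 note: cell viability assay read-out, values reflect inhibition of cell growth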
# Description: SANGER: Inhibition of human DOK cell growth in a cell viability assay.
# Daoy = assay type: functional, cell-based, Homo sapiens;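 note: daoy cell growth inhibition, read out as cell viability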
# Description: SANGER: Inhibition of human Daoy cell growth in a cell viability assay.
# ETK-1 = assay type: functional, cell-based, Homo sapiens;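 note: growth inhibition of human ETK-1 cells, read out with a cell viability assay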
# Description: SANGER: Inhibition of human ETK-1 cell growth in a cell viability assay.
# EW-1 = assay type: functional, cell-based, Homo sapiens
# Description: SANGER: Inhibition of human EW-1 cell growth in a cell viability assay.
# EW-18 = assay type: functional, cell-based; conditions: Homo sapiens;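 note: growth inhibition of EW-18 cells, read out by a cell viability assay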
# Description: SANGER: Inhibition of human EW-18 cell growth in a cell viability assay.
# EW-24 = assay type: functional, cell-based; conditions: Homo sapiens;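 note: human EW-24 cancer cell line, growth inhibition read out via a cell viability assay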
# Description: SANGER: Inhibition of human EW-24 cell growth in a cell viability assay.
# GCIY = assay type: functional, cell-based, Homo sapiens;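 note: growth inhibition of the human GCIY cell line, read out by a cell viability assay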
# Description: SANGER: Inhibition of human GCIY cell growth in a cell viability assay.
# HCC2157 = assay type: functional, cell-based; conditions: Homo sapiens;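 note: growth inhibition of the cancer cell line, read out as cell viability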
# Description: SANGER: Inhibition of human HCC2157 cell growth in a cell viability assay.
# HEC-1 = assay type: functional, cell-based, Homo sapiens;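 note: growth inhibition of the cell line, read out with a cell viability assay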
# Description: SANGER: Inhibition of human HEC-1 cell growth in a cell viability assay.
# HLE = assay type: functional, cell-based, Homo sapiens;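 note: growth inhibition of human HLE cells, read out by a cell viability assay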
# Description: SANGER: Inhibition of human HLE cell growth in a cell viability assay.
# HuO-3N1 = assay type: functional, cell-based, Homo sapiens;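 note: cell viability readout used to measure how strongly compounds suppress proliferation of human HuO-3N1 cells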
# Description: SANGER: Inhibition of human HuO-3N1 cell growth in a cell viability assay.
# JAR = assay type: functional, cell-based, Homo sapiens;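 note: growth inhibition of human JAR cells determined with a cell viability assay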
# Description: SANGER: Inhibition of human JAR cell growth in a cell viability assay.
# KU-19-19 = assay type: functional, cell-based, Homo sapiens
# Description: SANGER: Inhibition of human KU-19-19 cell growth in a cell viability assay.
# L-428 = assay type: functional, cell-based; conditions: Homo sapiens
# Description: SANGER: Inhibition of human L-428 cell growth in a cell viability assay.
# LS-513 = assay type: functional, cell-based, Homo sapiens
# Description: SANGER: Inhibition of human LS-513 cell growth in a cell viability assay.
# MEL-HO = assay type: functional, cell-based, Homo sapiens
# Description: SANGER: Inhibition of human MEL-HO cell growth in a cell viability assay.
# MKN-45 = assay type: functional, cell-based, Homo sapiens;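 note: growth inhibition of human MKN-45 cells, measured with a cell viability assay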
# Description: SANGER: Inhibition of human MKN45 cell growth in a cell viability assay.
# MZ2-MEL = assay type: functional, cell-based, Homo sapiens;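 note: growth inhibition of MZ2-MEL cells read out with a cell viability assay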
# Description: SANGER: Inhibition of human MZ2-MEL cell growth in a cell viability assay.
# NCI-H1838 = assay type: functional, cell-based, Homo sapiens;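 note: growth inhibition of NCI-H1838 cells, determined with a cell viability readout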
# Description: SANGER: Inhibition of human NCI-H1838 cell growth in a cell viability assay.
# NCI-H226 = assay type: functional, cell-based, Homo sapiens;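 note: cell viability read-out used to gauge growth inhibition of the cells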
# Description: SANGER: Inhibition of human NCI-H226 cell growth in a cell viability assay.
# NCI-H510A = assay type: functional, cell-based; conditions: Homo sapiens;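 note: growth inhibition of NCI-H510A cells, read out with a cell viability assay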
# Description: SANGER: Inhibition of human NCI-H510A cell growth in a cell viability assay.
# NCI-H727 = assay type: functional, cell-based, Homo sapiens;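 note: growth inhibition of human NCI-H727 cells, read out with a cell viability assay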
# Description: SANGER: Inhibition of human NCI-H727 cell growth in a cell viability assay.
# NOS-1 = assay type: functional, cell-based, Homo sapiens;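 note: growth inhibition of the human NOS-1 cell line, read out with a cell viability assay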
# Description: SANGER: Inhibition of human NOS-1 cell growth in a cell viability assay.
# NUGC-3 = assay type: functional, cell-based, Homo sapiens;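 note: growth inhibition of human NUGC-3 cells, read out with a cell viability assay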
# Description: SANGER: Inhibition of human NUGC-3 cell growth in a cell viability assay.
# RERF-LC-MS = assay type: functional, cell-based, Homo sapiens;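 note: growth inhibition of human RERF-LC-MS cells, read out by a cell viability assay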
# Description: SANGER: Inhibition of human RERF-LC-MS cell growth in a cell viability assay.
# RKO = assay type: functional, cell-based, Homo sapiens;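 note: growth inhibition of human RKO cells, read out with a cell viability assay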
# Description: SANGER: Inhibition of human RKO cell growth in a cell viability assay.
# RMG-I = assay type: functional, cell-based, Homo sapiens;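 note: growth inhibition of human RMG-I cells, read out with a cell viability assay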
# Description: SANGER: Inhibition of human RMG-I cell growth in a cell viability assay.
# S-117 = assay type: functional, cell-based, Homo sapiens
# Description: SANGER: Inhibition of human S-117 cell growth in a cell viability assay.
# SF-539 = assay type: functional, cell-based, Homo sapiens;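 note: Read-out is a cell viability assay, with IC50 reflecting inhibition of cell growth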
# Description: SANGER: Inhibition of human SF539 cell growth in a cell viability assay.
# SH-4 = assay type: functional, cell-based, Homo sapiens;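 note: growth inhibition of SH-4 cells, read out with a cell viability assay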
# Description: SANGER: Inhibition of human SH-4 cell growth in a cell viability assay.
# SK-MEL-1 = assay type: functional, cell-based; conditions: Homo sapiens;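 note: growth inhibition of human SK-MEL-1 cells, read out by a cell viability assay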
# Description: SANGER: Inhibition of human SK-MEL-1 cell growth in a cell viability assay.
# SK-PN-DW = assay type: functional, cell-based; conditions: Homo sapiens;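 note: growth inhibition measured with a viability assay on these cells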
# Description: SANGER: Inhibition of human SK-PN-DW cell growth in a cell viability assay.
# SNU-C2B = assay type: functional, cell-based, Homo sapiens;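 note: cell viability readout used to measure compound-driven suppression of SNU-C2B cell proliferation, IC50 marking half-maximal growth inhibition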
# Description: SANGER: Inhibition of human SNU-C2B cell growth in a cell viability assay.
# SW1710 = assay type: functional, cell-based, Homo sapiens;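 note: growth inhibition of SW1710 cells, determined with a cell viability assay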
# Description: SANGER: Inhibition of human SW1710 cell growth in a cell viability assay.
# SW48 = assay type: functional, cell-based, Homo sapiens;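 note: growth inhibition of SW48 cells, read out with a cell viability assay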
# Description: SANGER: Inhibition of human SW48 cell growth in a cell viability assay.
# SW684 = assay type: functional, cell-based, Homo sapiens;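 note: growth inhibition of human SW684 cells, measured by a cell viability assay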
# Description: SANGER: Inhibition of human SW684 cell growth in a cell viability assay.
# SW756 = assay type: functional, cell-based, Homo sapiens;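 note: growth inhibition of human SW756 cells, read out with a cell viability assay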
# Description: SANGER: Inhibition of human SW756 cell growth in a cell viability assay.
# T-24 = assay type: functional, cell-based, Homo sapiens;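 note: growth inhibition of T-24 cells, read out with a cell viability assay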
# Description: SANGER: Inhibition of human T-24 cell growth in a cell viability assay.
# T98G = assay type: functional, cell-based, Homo sapiens;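 note: growth inhibition of T98G cells, read out by a cell viability assay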
# Description: SANGER: Inhibition of human T98G cell growth in a cell viability assay.
# 639-V = assay type: functional, cell-based, Homo sapiens;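 note: growth inhibition of 639-V cells, read out with a cell viability assay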
# Description: SANGER: Inhibition of human 639-V cell growth in a cell viability assay.
# ACHN = assay type: functional, cell-based, Homo sapiens;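 note: cell viability read-out used to gauge how strongly growth of human ACHN cells is suppressed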
# Description: SANGER: Inhibition of human ACHN cell growth in a cell viability assay.
# BCPAP = assay type: functional, cell-based, Homo sapiens;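 note: growth inhibition of BCPAP cells, read out in a cell viability assay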
# Description: SANGER: Inhibition of human BCPAP cell growth in a cell viability assay.
# CAL-54 = assay type: functional, cell-based, Homo sapiens;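 note: growth inhibition of CAL-54 cells, read out by a viability measurement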
# Description: SANGER: Inhibition of human CAL-54 cell growth in a cell viability assay.
# TE-11 = assay type: functional, cell-based, Homo sapiens;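 note: growth inhibition of human TE-11 cells, read out by a cell viability assay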
# Description: SANGER: Inhibition of human TE-11 cell growth in a cell viability assay.
# TGW = assay type: functional, cell-based; conditions: Homo sapiens;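 note: growth inhibition of human TGW cells, read out with a cell viability assay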
# Description: SANGER: Inhibition of human TGW cell growth in a cell viability assay.
# UACC-62 = assay type: functional, cell-based, Homo sapiens;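 note: growth inhibition of human UACC-62 cells, read out by a cell viability assay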
# Description: SANGER: Inhibition of human UACC-62 cell growth in a cell viability assay.
# UACC-893 = assay type: functional, cell-based, Homo sapiens
# Description: SANGER: Inhibition of human UACC-893 cell growth in a cell viability assay.
# CAPAN-1 = assay type: functional, cell-based, Homo sapiens;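 note: growth suppression of CAPAN-1 cells, read out by a cell viability assay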
# Description: SANGER: Inhibition of human CAPAN-1 cell growth in a cell viability assay.
# COLO-679 = assay type: functional, cell-based, Homo sapiens
# Description: SANGER: Inhibition of human COLO-679 cell growth in a cell viability assay.
compound,measurement,setting,value
Cc1cc([C@@H](C)Nc2ccccc2C(=O)O)c2nc(N3CCOCC3)cc(=O)n2c1 [AZD-6482],IC50,CP50-MEL-B; cp50-mel-b,> 5.12 µM
same,IC50,DEL,> 5.12 µM
same,IC50,DOHH-2,4.65 µM
same,IC50,DOK; dok,3.85 µM and 1.53 µM
same,IC50,"Daoy; Homo sapiens, Daoy",> 5.12 µM
same,IC50,Daoy; daoy,> 5.12 µM
same,IC50,ETK-1; etk-1,> 5.12 µM
same,IC50,EW-1; ew-1,> 5.12 µM
same,IC50,EW-18,> 5.12 µM
same,IC50,EW-24,> 5.12 µM
same,IC50,GCIY; gciy,> 5.12 µM and 2.2 µM
same,IC50,HCC2157,3.96 µM
same,IC50,"HEC-1; Homo sapiens, HEC-1",> 5.12 µM
same,IC50,HEC-1; hec-1,> 5.12 µM
same,IC50,HLE; hle,> 5.12 µM
same,IC50,"HuO-3N1; Homo sapiens, HuO-3N1",> 5.12 µM
same,IC50,HuO-3N1; huo-3n1,> 5.12 µM
same,IC50,JAR; jar,> 5.12 µM
same,IC50,KU-19-19; ku-19-19,> 5.12 µM
same,IC50,L-428,> 5.12 µM
same,IC50,"LS-513; Homo sapiens, LS-513",> 5.12 µM
same,IC50,LS-513; ls-513,> 5.12 µM
same,IC50,MEL-HO; mel-ho,1.24 µM and > 5.12 µM
same,IC50,"MKN-45; Homo sapiens, MKN-45",> 5.12 µM
same,IC50,MKN-45; mkn-45,> 5.12 µM
same,IC50,MZ2-MEL; mz2-mel,> 5.12 µM
same,IC50,NCI-H1838; nci-h1838,> 5.12 µM
same,IC50,"NCI-H226; Homo sapiens, NCI-H226",> 5.12 µM
same,IC50,NCI-H226; nci-h226,> 5.12 µM
same,IC50,NCI-H510A,> 5.12 µM
same,IC50,NCI-H727; nci-h727,> 5.12 µM
same,IC50,"NOS-1; Homo sapiens, NOS-1",> 5.12 µM
same,IC50,NOS-1; nos-1,> 5.12 µM
same,IC50,NUGC-3; nugc-3,> 5.12 µM
same,IC50,RERF-LC-MS; rerf-lc-ms,> 5.12 µM and 4.34 µM
same,IC50,"RKO; Homo sapiens, RKO",3.06 µM
same,IC50,RKO; rko,3.19 µM
same,IC50,RMG-I; rmg-i,> 5.12 µM
same,IC50,S-117; s-117,> 5.12 µM
same,IC50,SF-539; sf-539,> 5.12 µM
same,IC50,SH-4; sh-4,> 5.12 µM
same,IC50,SK-MEL-1,> 5.12 µM
same,IC50,SK-PN-DW,> 5.12 µM
same,IC50,"SNU-C2B; Homo sapiens, SNU-C2B",> 5.12 µM
same,IC50,SNU-C2B; snu-c2b,> 5.12 µM
same,IC50,SW1710; sw1710,0.529 µM and 1.99 µM
same,IC50,"SW48; Homo sapiens, SW48",> 5.12 µM
same,IC50,SW48; sw48,> 5.12 µM
same,IC50,"SW684; Homo sapiens, SW684",> 5.12 µM
same,IC50,SW684; sw684,> 5.12 µM
same,IC50,"SW756; Homo sapiens, SW756",> 5.12 µM
same,IC50,SW756; sw756,> 5.12 µM
same,IC50,T-24; t-24,> 5.12 µM
same,IC50,"T98G; Homo sapiens, T98G",> 5.12 µM
same,IC50,T98G; t98g,> 5.12 µM
same,IC50,639-V; 639-v,1.63 µM and 4.78 µM
same,IC50,ACHN; achn,> 5.12 µM and 2.24 µM
same,IC50,"BCPAP; Homo sapiens, BCPAP",> 5.12 µM
same,IC50,BCPAP; bcpap,> 5.12 µM
same,IC50,CAL-54; cal-54,> 5.12 µM and 1.25 µM
same,IC50,TE-11; te-11,> 5.12 µM
same,IC50,TGW,> 5.12 µM
same,IC50,UACC-62; uacc-62,> 5.12 µM and 2.03 µM
same,IC50,UACC-893; uacc-893,3.98 µM and 1.51 µM
same,IC50,CAPAN-1; capan-1,> 5.12 µM
same,IC50,"COLO-679; Homo sapiens, COLO-679",> 5.12 µM
same,IC50,COLO-679; colo-679,> 5.12 µM
COc1cc([C@@H]2c3cc4c(cc3[C@@H](O[C@@H]3O[C@@H]5CO[C@@H](C)O[C@H]5[C@H](O)[C@H]3O)[C@H]3COC(=O)[C@H]23)OCO4)cc(OC)c1O [ETOPOSIDE],IC50,"CP50-MEL-B; Homo sapiens, CP50-MEL-B",> 16 µM
same,IC50,DEL,0.311 µM
same,IC50,DOHH-2,0.347 µM
same,IC50,"DOK; Homo sapiens, DOK",> 16 µM
same,IC50,"Daoy; Homo sapiens, Daoy",0.368 µM
same,IC50,"ETK-1; Homo sapiens, ETK-1",2.75 µM
same,IC50,"EW-1; Homo sapiens, EW-1",1.46 µM
same,IC50,EW-18,> 16 µM
same,IC50,EW-24,> 16 µM
same,IC50,"GCIY; Homo sapiens, GCIY",0.925 µM
same,IC50,HCC2157,> 16 µM
same,IC50,"HEC-1; Homo sapiens, HEC-1",2.37 µM
same,IC50,"HLE; Homo sapiens, HLE",0.534 µM
same,IC50,"HuO-3N1; Homo sapiens, HuO-3N1",7.71 µM
same,IC50,"JAR; Homo sapiens, JAR",> 16 µM
same,IC50,"KU-19-19; Homo sapiens, KU-19-19",> 16 µM
same,IC50,L-428,2.99 µM
same,IC50,"LS-513; Homo sapiens, LS-513",> 16 µM
same,IC50,"MEL-HO; Homo sapiens, MEL-HO",0.729 µM
same,IC50,"MKN-45; Homo sapiens, MKN-45",1.87 µM
same,IC50,"MZ2-MEL; Homo sapiens, MZ2-MEL",2.18 µM
same,IC50,"NCI-H1838; Homo sapiens, NCI-H1838",> 16 µM
same,IC50,"NCI-H226; Homo sapiens, NCI-H226",11.2 µM
same,IC50,NCI-H510A,8.65 µM
same,IC50,"NCI-H727; Homo sapiens, NCI-H727",> 16 µM
same,IC50,"NOS-1; Homo sapiens, NOS-1",3.58 µM
same,IC50,"NUGC-3; Homo sapiens, NUGC-3",0.981 µM
same,IC50,"RERF-LC-MS; Homo sapiens, RERF-LC-MS",2.49 µM
same,IC50,"RKO; Homo sapiens, RKO",0.471 µM
same,IC50,"RMG-I; Homo sapiens, RMG-I",> 16 µM
same,IC50,"S-117; Homo sapiens, S-117",> 16 µM
same,IC50,"SF-539; Homo sapiens, SF-539",1.61 µM
same,IC50,"SH-4; Homo sapiens, SH-4",3.13 µM
same,IC50,SK-MEL-1,> 16 µM
same,IC50,SK-PN-DW,0.342 µM
same,IC50,"SNU-C2B; Homo sapiens, SNU-C2B",> 16 µM
same,IC50,"SW1710; Homo sapiens, SW1710",0.518 µM
same,IC50,"SW48; Homo sapiens, SW48",0.869 µM
same,IC50,"SW684; Homo sapiens, SW684",> 16 µM
same,IC50,"SW756; Homo sapiens, SW756",2.98 µM
same,IC50,"T-24; Homo sapiens, T-24",> 16 µM
same,IC50,"T98G; Homo sapiens, T98G",8.82 µM
same,IC50,"639-V; Homo sapiens, 639-V",1.01 µM
same,IC50,"ACHN; Homo sapiens, ACHN",0.839 µM
same,IC50,"BCPAP; Homo sapiens, BCPAP",0.737 µM
same,IC50,"CAL-54; Homo sapiens, CAL-54",8.92 µM
same,IC50,"TE-11; Homo sapiens, TE-11",7.46 µM
same,IC50,TGW,> 16 µM
same,IC50,"UACC-62; Homo sapiens, UACC-62",2.92 µM
same,IC50,"UACC-893; Homo sapiens, UACC-893",> 16 µM
same,IC50,"CAPAN-1; Homo sapiens, CAPAN-1",1.25 µM
same,IC50,"COLO-679; Homo sapiens, COLO-679",0.163 µM
